Entries after “also recorded” stand apart in the source; their conditions may differ.
Legend:
[1] = tested on: aureolysin; assay: Staphylococcus aureus aureolysin (3 µg, BioCol GmbH) in 300 µl 20 mM Tris-HCl, 1 mM CaCl2 pH 7.8; settings: 37°C, up to 24 h
[2] = tested on: elastase; assay: Pseudomonas aeruginosa elastase (3 µg, Calbiochem) in 300 µl 20 mM Tris-HCl, 1 mM CaCl2 pH 7.8; settings: 37°C, up to 24 h

KKIRVRLSA
cleaved bond [1]: R6-L7, 1h; also recorded: S8-A9, 1h
not cleaved [1]: remaining unaltered after 24 h of incubation
cleaved bond [2]: R6-L7, 5 h; also recorded: S8-A9, 5 h
not cleaved [2]: resisted degradation by elastase for 24 h

Source: paper PMC3462775 (PLoS ONE, 2012)
